{
  "source": "patent US6585996B1",
  "about": "“Lipid-soluble thiamine derivatives in the treatment of autism” (Westlake Laboratories, Inc., priority 2002, dated 2003)",
  "key": {"autistic children": {"system": "autistic children", "conditions": "10 subjects, 50 mg TTFD twice a day, rectal suppository, two months", "experimental": "In a pilot study, ten autistic children, eight boys and two girls, were administered 50 mg of TTFD twice a day through a rectal suppository for a two-month trial period. All the patients were previously diagnosed with autism as defined by those in the field. Parents were asked to fill in a symptom check form to assess the symptoms of the autistic children by giving a numerical score as to severity.\nBoth forms are scored by computer and were designed by the Autism Research Institute specifically for research of this spectrum of disease. The first form, Form E2, is a diagnostic tool that allocates points on a symptomatic basis. The higher the score, the closer the patient comes to being considered a classic case of autism. The common form of autism that is occurring within the pilot test group seldom reaches the score that indicates classic autism, defined as the inability of a person to relate themself in the ordinary way to people and situations from the beginning of life.\nThe second form, the ATEC (Autism Treatment Evaluation Checklist) form, also allocates points on a symptomatic basis. […] In addition to completing the forms based on patient behavior, physiological changes were also measured.\nClinical improvement, as shown by the bars, is obtained by subtracting the final ATEC score from that calculated at the outset of the study."}, "children with autism": {"system": "children with autism", "conditions": "a few children with autism", "source_text": "A few children with autism have been exposed to a dermal preparation since the study has been completed."}},
  "data": [
    {"smiles": "CC(=C(CCO)SSCC1CCCO1)N(C=O)Cc1cnc(C)nc1N", "note": "(stereo in doubt) [TTFD, thiamine tetrahydrofurfuryl disulfide]", "values": [
      {"measurement": "Clinical results of oral versus rectal administration", "value": "does not appear to give as striking clinical results as rectal administration"},
      {"measurement": "Subjects showing clinical improvement in their autistic disorder", "setting": "autistic children", "value": "Eight of the 10"},
      {"measurement": "Clinical condition with dermal preparation", "setting": "children with autism", "value": "immediate improvement in the child's condition was noted"}
    ]}
  ]
}
